Here are results for nine compounds from patent US5387585A, “Imidazodiazepine derivatives” (Hoffmann-La Roche Inc., priority 1991, dated 1995).

The structures appear in SMILES notation.

For assay [1], the target named is central benzodiazepine receptors. The assay is described as follows: 3H-Flumazenil binding test in vitro. The conditions noted are these: inhibition of specific binding of tritiated flumazenil, rat cortex. Here is the method: 3H-Flumazenil binding test
The affinity of compounds of formula I to the central benzodiazepine receptors was established in vitro according to the methods described in Nature 294, 763-765 (1981) and J. Neurochemistry 37, 714-722 (1981). According to these methods, the inhibition of the binding of tritiated flumazenil to the specific benzodiazepine receptors in the cortex of rats by the respective test substances is determined. The IC50 ("50% inhibiting concentration") denotes that concentration of the respective test substance which brings about a 50 percent inhibition of the specific binding of tritiated flumazenil to the specific benzodiazepine receptors in the cortex of rats.

Assay [2] concerns rat. Put plainly: Conflict test in the rat. In kind it is in vivo. The conditions noted are these: po, 30 minutes before the 1-hour conflict test, read-out: Conflict test, rat, FSD (first significant anxiolytically-active dosage). Here is the method:
The test apparatus is a one-key Skinner box having a feed pellet dispenser. At least 8 hungry rats are usually employed per substance and dosage for the testing of potential anxiolytics. Rats which respond to the known anxiolytic chlorodiazepoxide are used. The test substances, which are dissolved or suspended in a mixture of 10 ml of distilled water and 2 drops of Tween 80, are administered to the test animals by means of a probang 30 minutes before the 1-hour conflict test. During the test, in which each press of the key for a feed pellet is combined with a foot shock (conflict), the number key activations is registered. Each test animal serves as its own control in that it is pre-treated once with test substance and once with sodium chloride solution.
The first significant anxiolytically-active dosage (FSD) is determined with the Wilcoxon test (comparison of pairs) by comparing directly the number of key activations in the main test (feed pellet +foot shock after pre-treatment with test substance) with the number of key activations in the control test (feed pellet +foot shock after pre-treatment with sodium chloride solution).

Assay [3] has as its system female mice (Charles-River). The assay is described as follows: Reversal of the action of meclonazepam in the rotating rod test. In kind it is in vivo. Conditions: iv, 0.5 h; mouse, i.v., after 5 mg/kg meclonazepam i.p.; 50% of animals remain on rod; read-out: Anti-meclonazepam, rotating rod, mouse, ID50. Here is the method:
Reversal of the action of meclonazepam in the rotating rod test
Test description: female mice (Charles-River, Pans) weighing 19-21 g are used, They have free access to feed and drinking water up to 1 h; before the beginning of the test. They are brought into the test laboratory at lent 30 min. before the test.
In the rotating rod test the animals are placed on a horizontally arranged, smooth metal rod having a diameter of 3 cm, which is rotated at 2 revolutions per min. Initially, the animals are given the opportunity of familiarizing themselves with the test situation for 30sec. Subsequently, those animals which succeed in remaining on the rod for at least 1 min. are selected.
Determination of the reversal of the activity of meclonazepam: 5 mg/kg of meclonazepam are administered intraperitonally to the animals as a suspension in a 0.3% aqueous Tween 80 solution. This causes an inability to stay on the rotating red, which lasts for several hours. 20 min. later, a fine suspension of the test preparation in a 0.3% Tween 80 solution in water is administered intravenously. 30 min. later, it is determined whether the animals can stay on the rod for at least I min. The dosage at which 50% of the animals are capable of remaining on the rod is determined (ID50).

Assay [4] relates to Male DBA 2J mice. The assay is described as follows: Audiogenic seizures (anticonvulsive test). In kind it is in vivo. The conditions noted are these: po, 0.5 h; mouse, p.o., prevention of tonic convulsions in 50% of animals, 30 minutes before test; read-out: Audiogenic seizure, mouse, ED50. Here is the method:
The anticonvulsive properties of the compounds of formula I can be determined, for example, in the test described hereinafter.
The test apparatus is a soundproofed one-key box having a built-in sound source. Male DBA 2J mice aged 21 days and weighing 7-11 g are employed for the testing of the substances. These mice are an animal model for epilepsy in which sonic irradiation causes seizures. The test substances are employed as aqueous suspensions of different concentration and are administered to the experimental animals orally or intraperitonally in an amount of 10 ml/kg 30 minutes before the beginning of the test. The test animals are exposed for 60 seconds to a sonic irradiation of 110 dB/14 KHz. This produces in untreated animals symptoms such as racing around, cronic seizures and tonic convulsions. The ED50 value, that is, that dosage of a test substance which in :50% of the test animals prevents the tonic convulsions caused by the sonic irradiation, is determined.

For the compound `c1ccc2c(c1)-c1ncnn1Cc1c(-c3nc(C4CC4)no3)ncn1-2` [A, 10-(3-cyclopropyl-1,2,4-oxadiazol-5-yl)-9H-imidazo[1,5-a][1,2,4]triazolo[1,5-d][1,4]benzodiazepine], in assay [1], the IC50 (commonly the concentration that gives 50% inhibition) was found to be 1.3 nM. Further, the minimal effective dose in assay [2] worked out at 0.3 mg/kg. The ED50 in assay [3] was 1.5 mg/kg.
In assay [1], `Clc1cccc2c1-c1ncnn1Cc1c(-c3noc(C4CC4)n3)ncn1-2` [G, 4-Chloro-10-(5-cyclopropyl-1,2,4-oxadiazol-3-yl)-9H-imidazo[1,5-a][1,2,4]triazolo[1,5-d][1,4]benzodiazepine] displayed an IC50 of 0.6 nM. The ED50 in assay [3] was 0.0047 mg/kg.
`Fc1ccc2c(c1)-c1ncnn1Cc1c(-c3noc(C4CC4)n3)ncn1-2` [C, 10-(5-cyclopropyl-1,2,4-oxadiazol-3-yl)-3-fluoro-9H-imidazo[1,5-a][1,2,4]triazolo[1,5-d][1,4]benzodiazepine] gave an IC50 in assay [1] of 0.91 nM. The minimal effective dose in assay [2] came to 0.003 mg/kg. The ED50 in assay [4] turned out to be 0.015 mg/kg; in assay [3], 0.17 mg/kg.
With `c1ccc2c(c1)-c1ncnn1Cc1c(-c3noc(C4CC4)n3)ncn1-2` [D, 10-(5-cyclopropyl-1,2,4-oxadiazol-3-yl)-9H-imidazo[1,5-a][1,2,4]triazolo[1,5-d][1,4]benzodiazepine], the IC50 in assay [1] is 0.33 nM. In addition, the minimal effective dose in assay [2] turned out to be 3 mg/kg. Also, the ED50 came out at 4.2 mg/kg in assay [4] and 0.08 mg/kg in assay [3].
In assay [1], `CCOCc1nc(-c2ncn3c2Cn2ncnc2-c2cc(F)ccc2-3)no1` [F, 10-[5-(ethoxymethyl)-1,2,4-oxadiazol-3-yl]-3-fluoro-9H-imidazo[1,5-a][1,2,4]triazolo[1,5-d][1,4]benzo-diazepine] yielded an IC50 of 3 nM. Moreover, the minimal effective dose in assay [2] was determined as 0.1 mg/kg. Also, the ED50 was 0.11 mg/kg in assay [4] and 1.8 mg/kg in assay [3].
With `Clc1cccc2c1-c1nccn1Cc1c(-c3noc(C4CC4)n3)ncn1-2` [I, 4-chloro-10-(5-cyclopropyl-1,2,4-oxadiazol-3-yl)-9H-diimidazo[1,5-a:1',2'-d][1,4]benzodiazepine], in assay [1], the IC50 amounted to 0.3 nM. Besides, in assay [2], the minimal effective dose amounted to 0.03 mg/kg. Further, in assay [4], the ED50 turned out to be 0.00011 mg/kg.
Take `Clc1cccc2c1-c1nccn1Cc1c(-c3nc(C4CC4)no3)ncn1-2` [H, 4-chloro-10-(3-cyclopropyl-1,2,4-oxadiazol-5-yl)-9H-diimidazo[1,5-a:1',2'-d][1,4]benzodiazepine]: the concentration for half-maximal inhibition (IC50) in assay [1] was found to be 0.29 nM. Further, in assay [2], the minimal effective dose is 0.001 mg/kg. Also, the figures for the ED50 in assay [4] and in assay [3] were 0.0039 mg/kg and 0.1 mg/kg, respectively.
For `Fc1ccc2c(c1)-c1ncnn1Cc1c(-c3nc(C4CC4)no3)ncn1-2` [B, 10-(3-cyclopropyl-1,2,4-oxadiazol-5-yl)-3-fluoro-9H-imidazo[1,5-a][1,2,4]triazolo[1,5-d][1,4]benzodiazepine], the IC50 in assay [1] was determined as 2.5 nM. Moreover, the minimal effective dose in assay [2] amounted to 0.1 mg/kg. The ED50 in assay [4] turned out to be 0.27 mg/kg; in assay [3] it was 0.8 mg/kg.
On to `Clc1ccc2c(c1)-c1nccn1Cc1c(-c3noc(C4CC4)n3)ncn1-2` [E, 3-chloro-10-(5-cyclopropyl-1,2,4-oxadiazol-3-yl)-9H-diimidazo[1,5-a:1',2'-d][1,4]benzodiazepine], for which the IC50 in assay [1] was determined as 2.9 nM. Further, in assay [2], the minimal effective dose stood at 1 mg/kg. For the same compound, the ED50 in assay [4] was 0.21 mg/kg.
